Tested on: N-terminal 6 His-tagged, constitutively active MEK1 (2-393)
Test: MEK1 kinase assay (incorporation of γ-33P-phosphate from γ-33P-ATP onto ERK2)
Assay type: biochemical
Conditions: 5 nM MEK1, 1 μM ERK2, 10 μM ATP, 45 minutes at ambient temperature, 1% DMSO
Protocol: The activity of the compounds of the present invention may be determined by the following procedure. N-terminal 6 His-tagged, constitutively active MEK1 (2-393) is expressed in E. coli and protein is purified by conventional methods (Ahn et al., Science 1994, 265, 966-970). The activity of MEK1 is assessed by measuring the incorporation of γ-^33P-phosphate from γ-^33P-ATP onto N-terminal His tagged ERK2, which is expressed in E. coli and is purified by conventional methods, in the presence of MEK1. The assay is carried out in 96-well polypropylene plate. The incubation mixture (100 μL) comprises of 25 mM Hepes, pH 7.4, 10 mM MgCl2, 5 mM β-glycerolphosphate, 100 μM Na-orthovanadate, 5 mM DTT, 5 nM MEK1, and 1 μM ERK2. Inhibitors are suspended in DMSO, and all reactions, including controls are performed at a final concentration of 1% DMSO. Reactions are initiated by the addition of 10 μM ATP (with 0.5 μCi γ-^33P-ATP/well) and incubated at ambient temperature for 45 minutes. Equal volume of 25% TCA is added to stop the reaction and precipitate the proteins. Precipitated proteins are trapped onto glass fiber B filterplates, and excess labeled ATP washed off using a Tomtec MACH III harvester. Plates are allowed to air-dry prior to adding 30 μL/well of Packard Microscint 20, and plates are counted using a Packard TopCount.

Row | SMILES | Activity
1 | O=C(NOCCO)c1cc2[nH]cnc2c(F)c1Nc1ccc(Br)cc1Cl [Compound 8n] | active
2 | O=C(NOCC1CC1)c1cc2[nH]cnc2c(F)c1Nc1ccc(Br)cc1Cl [Compound 11b, 6-(4-Bromo-2-chloro-phenylamino)-7-fluoro-3H-benzoimidazole-5-carboxylic acid cyclopropylmethoxy-amide] | active
3 | Cc1cc(Br)ccc1Nc1c(C(=O)NOCC2CC2)cc2c(ncn2C)c1F [Compound 11c] | active
4 | O=C(NOCCO)c1cc2c(ncn2CC2CCCCO2)c(F)c1Nc1ccc(Br)cc1Cl (stereo not drawn) [Compound 11p, 6-(4-Bromo-2-chloro-phenylamino)-7-fluoro-3-(tetrahydro-pyran-2-ylmethyl)-3H-benzoimidazole-5-carboxylic acid (2-hydroxy-ethoxy)-amide] | active
5 | Cc1cc(Br)ccc1Nc1c(C(=O)NOCC2CC2)cc2c(ncn2CCCCN2CCCCC2)c1F [Compound 18i] | active
6 | Cn1cnc2c(F)c(Nc3ccc(Br)cc3F)c(C(=O)NOCCO)cc21 [Compound 29lll] | active
7 | Cn1cnc2c(F)c(Nc3ccc(Br)cc3F)c(C(=O)NOC(C)(C)CO)cc21 [Compound 29mmm] | active

Results, then the compound that gave them:

Row | Activity | SMILES
8 | active | CCCCn1cnc2c(F)c(Nc3ccc(Br)cc3Cl)c(C(=O)NOCC3CC3)cc21 [Compound 29bb]
9 | active | Cn1cnc2c(F)c(Nc3ccc(Br)cc3Cl)c(C(=O)NOCCO)cc21 [Compound 29c, 6-(4-Bromo-2-chloro-phenylamino)-7-fluoro-3-methyl-3H-benzoimidazole-5-carboxylic acid (2-hydroxy-ethoxy)-amide]
10 | active | Cn1cnc2c(F)c(Nc3ccc(Br)cc3Cl)c(C(=O)NOC(C)(C)CO)cc21 [Compound 29i]
11 | active | Cc1nc(Cn2cnc3c(F)c(Nc4ccc(Br)cc4Cl)c(C(=O)NOCCO)cc32)cs1 [Compound 29s]
12 | active | O=C(NOCCO)c1cc2c(ncn2Cc2ccc(Cl)cc2)c(F)c1Nc1ccc(Br)cc1Cl [Compound 29t]

Reference: patent US7235537B2, “N3 alkylated benzimidazole derivatives as MEK inhibitors” (Array BioPharma, Inc., priority 2002, dated 2007)
